The record followed here is a melting point compilation (Tetko et al.; mined from patent text by program, amines drawn as free bases though some values may be those of a salt).

As a reminder, the melting point is the temperature of the solid-liquid transition.

Take `Cn1cc(-c2ccc3nnc(C(F)(F)c4ccc5ncccc5c4)n3n2)cn1`: the melting point stood at 200 °C.

For the compound `CCCCn1c(=O)c2c(ncn2S(=O)(=O)Cc2ccccc2)n(CCCC)c1=O`, the melting point fell in the range of 117 to 118 °C.

Compound `CC1=C(/C=C/C(C)=C/CO)C(C)(C)CC(O)C1=O` (configuration not stated) yielded a melting point of 85 to 86 °C.

`CN(C)c1ccc(S(=O)CCCCCC(=O)NO)cc1` (configuration not stated) yielded a melting point of 95 to 97 °C.

In turn, `O=c1[nH]c2ccc3ccccc3c2n(CCc2ccccc2)c1=O` came in with a melting point of 268 °C.

Regarding `CC12CC(=O)C3C(CCC4CC(=O)CCC43C)C1CCC2C(=O)CCl` (configuration not stated), the melting point was in the range of 168 to 172 °C.

`O=C(Nc1ccccc1NS(=O)(=O)c1ccc(Cl)cc1)c1ccccc1` came in with a melting point of 191 to 192 °C.

In turn, `CC[C@@H]1C[C@H](NC(=O)OCc2ccccc2)c2cc(C(F)(F)F)ccc2N1` returned a melting point of 154 to 155 °C.

In turn, `COc1cc(C(=O)O)cc(CCc2ccccc2)c1C(=O)O` showed a melting point of 242 to 244 °C.

For the compound `O=C(c1ccccc1)c1ccc([N+](=O)[O-])c(C(=O)O)c1`, the melting point was 169 °C.

The compound `CCOC(=O)c1c(Nc2ccc(Cl)cc2C)n[nH]c1C` displayed a melting point of 156 to 187 °C.

The compound `CCCCc1cn(Cc2ccc(-c3ccccc3C(=O)O)cc2)c2c(Br)cccc2c1=O` registered a melting point of 180 °C.

The compound `CNC(=O)C(=NOC)c1ccccc1COc1ncc(C(=O)O)cc1Cl` returned a melting point of 189 to 195 °C.

In turn, `COc1nc(C)cnc1NS(=O)(=O)c1cccnc1-c1ccc(COCCO)cc1` had a melting point of 106 to 108 °C.

Consider `CCOC(=O)CNc1nc2cccccc-2c1C#N`, for which the melting point lay in the range of 186 to 188 °C.

Compound `CCCS(=O)CC(=O)NNC(=O)N1Cc2ccccc2Oc2ccc(Cl)cc21` (configuration not stated) came in with a melting point of 158 to 160 °C.

`COCc1noc(N2CCC([C@H]3C[C@H]3CCOc3ccc(S(C)(=O)=O)cn3)CC2)n1` came in with a melting point of 68 to 70 °C.

`CN1CCOc2ccc(S(=O)(=O)n3c(Cc4ccc(C(=O)O)cc4)cc4cc(C(F)(F)F)ccc43)cc21` gave a melting point of 206 °C.

`CCOc1cc(-c2cc(C(F)(F)F)n3ncc(C(=O)Nc4cccc(S(=O)(=O)NC(C)(C)CO)c4)c3n2)ccc1C(F)(F)F` returned a melting point of 268 °C.

`Nc1ccc(C2CCOCC2)cc1` came in with a melting point of 122 °C.

In the case of `CN(C)n1cc(C(=O)O)c(=O)c2cc(F)c(Cl)cc21`, the melting point is 255 to 256 °C.

In the case of `CCS(=O)(=O)c1ccc(Oc2ccc(Cl)c(Cl)c2)nc1`, the melting point was in the range of 117 to 118 °C.

For `CC(C)Cn1cnc2c(N)nc3cc(Br)ccc3c21`, the melting point lay in the range of 218 to 220 °C.

`OC(Cn1ccnc1)(c1ccc(Cl)cc1)c1ccc(Cl)cc1` returned a melting point of 208 to 210 °C.

In the case of `CC(C)(C)NC(=O)c1ccc(N2CCN(c3ccncc3)CC2)cc1`, the melting point was in the range of 214 to 217 °C.

Consider `CCCN1C(=O)N2C[C@@H](Cc3ccccc3)N=C2c2[nH]c(COCc3ccccc3)nc21`, for which the melting point is 130 to 132 °C.

`COCCOc1cc2ncc(C#N)c(NC3CCCC3)c2cc1OC` came in with a melting point of 87 to 90 °C.

As for `CNC(=O)CCCCN1CCC(C(O)(c2ccc(F)cc2)c2ccc(F)cc2)CC1`, the melting point lay in the range of 130 to 131 °C.

The compound `CN(CCCNc1ncc(Cc2ccccc2)c(=O)[nH]1)c1ccccn1` showed a melting point of 75 to 85 °C.

As to `COC(=O)c1ccnc2ccc(C(=O)c3ccc(Cl)cc3)cc12`, the melting point came to 126 °C.

Take `CC(C)n1c(=O)c2ccccc2n(SC(Cl)(Cl)Cl)c1=O`: the melting point is 105 to 106 °C.

As to `CN(C)C1CC=C(c2c[nH]c3ccc(N)cc23)CC1` (configuration not stated), the melting point fell in the range of 63 to 65 °C.

Consider `CC(=O)OC1CSC(Oc2cncc(-c3cccnc3)c2)C(OC(C)=O)C1OC(C)=O` (configuration not stated), for which the melting point was 149 °C.

In the case of `CSc1nn2c(N3CCN(C)CC3)cc(C)nc2c1S(=O)(=O)c1cccnc1`, the melting point lay in the range of 188 to 189 °C.

`COc1c([N+](=O)[O-])cc(C=O)c(Cl)c1O` yielded a melting point of 130 °C.

The compound `COc1ccc(OC)c2c1c(C(=O)C(=O)NC1=CC(=O)OC1)cn2Cc1ccc(Cl)cc1` came in with a melting point of 212 to 215 °C.

In the case of `CCc1c(OCc2ccc(Cl)cc2)cnn(C(C)(C)C)c1=O`, the melting point lay within 86 to 88 °C.

The compound `COCC1CN(c2ccc(C3CCC(OCCC#N)CC3)cc2)C(=O)O1` (racemic) returned a melting point of 57 to 59 °C.

Regarding `C#Cc1c(C(C)C)nc(-c2ccccc2)n1-c1ccc(F)cc1`, the melting point lay within 148 to 150 °C.

Consider `CC1(COc2ccc(Cc3nnn[nH]3)cc2)CCCCC1O` (configuration not stated), for which the melting point fell in the range of 103 to 108 °C.

In turn, `CC(=O)OCCOc1cnc(-c2ncc([N+](=O)[O-])n2C)nc1` yielded a melting point of 148 to 150 °C.

`CC(C)(C)n1nnc(Cc2ccc(Br)cc2)n1` registered a melting point of 69 to 70 °C.

Compound `O=C(O)CCc1cnn(-c2ccccc2)c1-c1ccccc1` came in with a melting point of 159 to 160 °C.

On to `O=C1NC(=O)C(=Cc2ccc(OCCN3C(=O)SC(Cc4ccccc4)C3=O)cc2)S1` (configuration not stated), for which the melting point fell in the range of 145 to 147 °C.

As for `CCc1c(C(=O)NNC(=O)C(O)c2cc(F)cc(F)c2)ccc(O)c1C` (configuration not stated), the melting point came to 187 °C.

In the case of `CCCc1c(OCCCOc2ccc(C(=O)CCC(=O)O)c(F)c2)ccc(C(C)=O)c1O`, the melting point fell in the range of 113 to 118 °C.

The compound `Fc1ccc(Nc2ncnc3[nH]ccc23)cc1Cl` registered a melting point of 274 to 275 °C.

`O=C1c2ccccc2C(=O)c2sc(-c3cc(Br)c(Br)o3)nc21` came in with a melting point of over 260 °C.

Consider `Cc1cccc(C)c1N1C(=O)CS/C1=N\C(=O)Nc1ccc(-c2ncn(-c3ccc(OC(F)(F)F)cc3)n2)cc1`, for which the melting point fell in the range of 190 to 196 °C.

Compound `CC1(C)OC(=O)Nc2ccc(-c3ccc(C#N)[nH]3)cc21` showed a melting point of 241 to 242 °C.

As to `COc1ccc(S(=O)(=O)CC(CS(=O)(=O)c2ccc(OC)cc2)C(=O)NO)cc1`, the melting point was 174 °C.

`CCCCc1nc2cccc(C(=O)O)c2n1Cc1ccc(-c2ccccc2-c2nc(=S)o[nH]2)cc1` gave a melting point of 178 to 180 °C.

On to `CC(C)=CCc1c(O)ccc(CCCc2ccc(O)cc2)c1O`, for which the melting point lay within 115 to 116 °C.

With `CCCCCCCCOc1ccc(C(=O)Nc2cccc(Cl)c2Cl)cc1`, the melting point lay within 104 to 106 °C.

Compound `CNC(=O)Cc1ncc2c(n1)-c1ccc(Cl)cc1C(c1ccccc1F)=NC2` registered a melting point of 175 to 177 °C.

Regarding `Cc1cccc2c1N(Cc1c[nH]cn1)C(=O)C(NC(=O)Nc1cccc(-c3nnn[nH]3)c1)N=C2C1CCCCC1` (configuration not stated), the melting point lay in the range of 168 to 179 °C.

In turn, `O=C(Nc1ccccc1Sc1ccccc1-c1nnn[nH]1)c1ccc(OCCCCc2ccccc2)cc1` yielded a melting point of 156 to 159 °C.

`CC(=O)Nc1ccc(-c2cc(C(=O)c3cc(-c4ccc(NC(C)=O)cc4)c(N4CCOCC4)s3)sc2N2CCOCC2)cc1`: the melting point was 140 to 142 °C.

Regarding `Cc1nc(N2CCC(Cc3ccc(F)cc3)C2=O)sc1C(=O)NCc1cccnc1` (configuration not stated), the melting point is 169 to 170 °C.

With `COc1cccc(N(c2ccccc2)c2ccc(-c3ccc(N(c4ccccc4)c4cccc(OC)c4)cc3)cc2)c1`, the melting point was in the range of 120 to 125 °C.

The compound `COc1cccc2c1C(C)N1CC(=O)NC1=N2` (configuration not stated) returned a melting point of 250 °C.

The compound `COc1c(C(F)(F)F)cc([N+](=O)[O-])c(NN(C)C)c1[N+](=O)[O-]` yielded a melting point of 109 to 110 °C.

For `CCCCc1cccn2c(=O)c(-c3nnn[nH]3)cnc12`, the melting point lay in the range of 256 to 258 °C.

As for `CC(C)(C)OC(=O)Nc1ccc(F)c(F)c1C(=O)O`, the melting point worked out at 160 °C.

`CC(=O)OC1CC2C(=O)CC3C(CCC4(C)C(C(C)C=CC(C)C(C)C)CCC34)C2(C)CC1OC(C)=O` (configuration not stated) gave a melting point of 196 to 197 °C.

For the compound `COCC1CN(c2ccc(OCCC(C)O)cc2)C(=O)O1` (configuration not stated), the melting point worked out at 58 °C.

`Cc1c(Oc2nccs2)ccc(C(=O)O)c1Cl` had a melting point of 150 to 152 °C.

`COC(=O)CCC/C=C(\c1cc(F)cc(C(F)(F)F)c1)c1cc(C)c2on(C)c(=O)c2c1`: the melting point lay within 97.5 to 98.5 °C.

As to `O=C1N(CC(F)(F)F)C(=NCc2ccc(OC(F)(F)F)cc2)SCN1c1ccccc1`, the melting point was 84 to 87 °C.

As to `O=C(CCCCCCOc1ccccc1)c1nnc(COCc2ccccc2)o1`, the melting point was 61 to 63 °C.

In turn, `O=C1CCCC(=O)C1Cc1ccccc1CCCCl` gave a melting point of 143 to 145 °C.

Compound `CC(Oc1cc(Oc2ccc(C(F)(F)F)cc2Cl)ccc1[N+](=O)[O-])C(=O)NCC1CCCO1` (configuration not stated) showed a melting point of 102 to 104 °C.

The compound `CC(=O)N(CCCCN1C(=O)c2ccccc2C1=O)c1ccccc1` displayed a melting point of 83 to 84 °C.

In turn, `Cc1cc(I)ccc1-c1cccc(C(N)=O)c1` had a melting point of 138 to 141 °C.

As to `O=c1[nH]c2cccc(OCCN3CCc4ccccc4C3)c2[nH]1`, the melting point was 173 to 174 °C.

Compound `O=C(O)C(C1CC(=O)N(C(=O)OCC(Cl)(Cl)Cl)O1)N1C(=O)c2ccccc2C1=O` (configuration not stated) had a melting point of 208 to 210 °C.

Consider `CCCc1c(OCCCSCCC(=O)O)ccc(C(C)=O)c1O`, for which the melting point lay in the range of 90 to 92 °C.

Compound `C=CCc1cc(C(C)=O)c(O)cc1OCCCCC(=O)O` showed a melting point of 110 to 111 °C.

`COc1cc(-c2cnc3[nH]cc(C(=O)C4(C)CCC(O)CC4)c3n2)cc(OC)c1OC` (configuration not stated) registered a melting point of 242 to 244 °C.

For the compound `C[C@]1(CN2CCN(C(=O)OCc3ccc(OC(F)(F)F)cc3)CC2)Cn2cc([N+](=O)[O-])nc2O1`, the melting point came out at 140 °C.

Take `CC(=O)NC[C@H]1CN(c2ccc(-c3nnc(CCCl)s3)c(F)c2)C(=O)O1`: the melting point lay within 178 to 180 °C.

For the compound `CC(=O)c1ccc(Cl)c(C)c1F`, the melting point was determined as 57 °C.

`COC(=O)C1=Cc2cc([N+](=O)[O-])ccc2N(C)CCC1` came in with a melting point of 127 to 129 °C.

Take `CC(C)(C)c1ccc(S(=O)(=O)n2c(CCCC(=O)O)cc3nc(Cl)ccc32)cc1`: the melting point came to 168 °C.

With `O=C(O)c1nc(-c2ccc(-c3ccccc3)cc2)nc2ccccc12`, the melting point was in the range of 175 to 176 °C.

As to `Cc1cccc(C=Cc2ccccc2C#N)n1`, the melting point lay in the range of 91 to 92 °C.

In turn, `COC(=O)c1ccc(NC(=O)c2cc(C(C)C)c(C(C)C)s2)cc1OC` displayed a melting point of 172 to 173 °C.
